From ChEMBL document CHEMBL4257225, “Compounds and compounds for use in methods for treating diseases or conditions mediated by protein disulfide isomerase” (2016)
The source made the active and inactive calls. The calls are words filed in the database; no cut-off is given here.

Tests used:
[1] = biological target: Protein disulfide-isomerase (Homo sapiens) (UniProt P07237); test: Inhibition of PDI in human platelet rich plasma assessed as reduction in SFLLRN peptide-induced platelet aggregation preincubated for 30 mins followed by SFLLRN addition relative to control
Chain of Protein disulfide-isomerase (Homo sapiens) (P07237 18-508 limits assumed): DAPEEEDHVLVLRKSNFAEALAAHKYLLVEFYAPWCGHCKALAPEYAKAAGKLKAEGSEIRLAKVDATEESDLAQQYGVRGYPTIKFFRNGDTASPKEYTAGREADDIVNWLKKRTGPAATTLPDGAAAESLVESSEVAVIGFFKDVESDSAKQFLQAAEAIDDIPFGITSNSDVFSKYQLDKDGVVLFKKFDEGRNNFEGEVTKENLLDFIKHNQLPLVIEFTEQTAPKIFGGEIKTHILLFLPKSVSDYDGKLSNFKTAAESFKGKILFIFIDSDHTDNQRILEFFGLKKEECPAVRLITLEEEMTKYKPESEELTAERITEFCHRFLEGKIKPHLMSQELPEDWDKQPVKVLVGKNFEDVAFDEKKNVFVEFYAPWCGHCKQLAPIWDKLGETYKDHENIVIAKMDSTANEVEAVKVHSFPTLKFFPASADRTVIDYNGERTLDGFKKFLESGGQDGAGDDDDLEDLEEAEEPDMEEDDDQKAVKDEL

Mus musculus = species: Mus musculus; test: Anti-platelet activity in mouse assessed as inhibition of laser injury-induced thrombus formation by measuring reduction in platelet accumulation in cremaster arterioles by microscopic method; assay type: functional, organism-based

Row | Compound | inhibition [1] [%] | inhibition (Mus musculus)
1 | CCOC(=O)C1(CCOc2ccccc2)CCN(C(=O)c2ccc(O)c(Cl)c2)CC1 | 100 | 
2 | CC(C)(C)OC(=O)C1(CCOc2ccccc2)CCN(Cc2ccc(O)c(Cl)c2)CC1 | 100 | 
3 | CCOC(=O)C1(CCOc2ccccc2)CCN(Cc2ccc(O)c(Cl)c2)CC1 | 25 to 50 | Active
